Laboratory results reported in patent US7071194B2, “Method for improving respiratory function and inhibiting muscular degeneration” (priority 2000, dated 2006).
Values joined by “and” are separate entries in the source; they are usually repeats but may differ in a detail not shown here. Identical values can stand only once.

Key:
T8 SCI rats [1] = assay: Respiratory function by head-out plethysmograph in conscious rats after T8 contusion SCI; format: in vivo, rat
Procedure: Female Sprague-Dawley rats (250–280 g and 360–390 g; Taconic, Germantown, N.Y.) were anesthetized with 4% chloral hydrate (360 mg/kg, i.p.). An incomplete spinal courd contusion injury was produced at T8 with a weight drop device (10 g×2.5 cm) as previously described (Wrathall et al., 1985). After SCI, manual expression of bladders was performed twice daily until a reflex bladder was established. Animal care also included housing the rats in pairs to reduce isolation-induced stress, maintaining ambient temperature at 22–25° C., and using highly absorbent bedding. No prophylactic antibiotics were given.
(§1) Experiments were conducted in unanesthetized, awake, spontaneously breathing rats at 24 hours prior to SCI, at 24 hours p.i. and weekly afterwards at 1,2,3, and 4 weeks p.i. (1) Acclimatization of the Animals. […] Animals were placed in the body cylinder of the plethysmograph (FIG. 1a) for 60 minutes per day for at least 5 days. […] (2) Non-Invasive Measurements of Respiratory Rate, Tidal Volume and Minute Ventilation. Non-invasive measurements of respiratory function in conscious rats were performed with a restrained head-out plethysmograph specially designed for rodents (BUXCO Electronics, Inc., Sharon, Conn.) (FIG. 1a). The plethymograph apparatus has a neck seal that prevents leakage of air from between the animal's neck and the plethymograph opening. Displacement of the thoracic wall produced by the animal's respiratory movements causes changes in the cylinder pressure, which results in air flowing across a pneumotachograph located on the wall of the cylinder. The pressure drop across the pneumotachograph is measured with a pressure transducer and is proportional to the flow. This signal is amplified and integrated into volume. From measurements of volume and flow, a computer and appropriate software provides respiratory parameters, such as respiratory rate (f), tidal volume (Vt), minute ventilation (Ve), peak inspiratory flow, peak expiratory flow, inspiratory time (Ti), expiratory time (Te), and accumulated volume. An additional opening on the wall of the box allows volume calibration by injecting and removing air from the box with a calibrated syringe.
(§2) The noise level in the laboratory was kept to a minimum in order not to startle the animals. Further, the animals were visually isolated from the investigators by means of a chamber made of an opaque material that surrounded and covered the front-end of the body plethysmograph (FIG. 1b). Baseline recordings lasted for 4 minutes. (3) Measurement of Ventilatory Response to Carbon Dioxide. For measurement of the ventilatory response to CO2, animals were exposed to air containing 7% CO2. The animals breathed from a funnel fixed in the front wall of a chamber made of an opaque material (FIG. 1b). The animals were exposed to the gas mixture containing 7% CO2 (mixed with 60% O2 and 33% N2) for 5 minutes with recording of respiratory activity for another 2 minutes (a total recording duration of 7 minutes).
(§3) The 5HT1A receptor antagonist, p-MPPI (RBI, Natick, Mass.) was also dissolved in 0.9% saline and given i.p. in a dose of 3 mg/kg (pH 7.4 and final volume of 0.5 ml). […] Vehicle solution (VEH) was 0.9% saline and also injected at i.p. (pH 7.4; volume: 0.5 ml/rat).
Baseline respiratory function was measured under room air ventilation and after the animal was stabilized inside a boy cylinder (FIGS. 1a and b) for 30 minutes at each time point prior to SCI and after injury. Immediately following the evaluation of baseline respiration, the animals were let to breathe air containing 7% CO2 for 7 minutes to monitor their ventilatory response to CO2 stimulus (Teng et al., 1998a and 1999).

normal conscious rats = assay: Respiratory function by head-out plethysmograph in normal conscious rats; format: in vivo, rat
Procedure: as §1, §2, §3

[2] = rats; cited from earlier work
T8 SCI rats [3] = assay: Respiratory function by head-out plethysmograph in conscious rats after T8 contusion SCI; format: in vivo, rat; conditions: p-MPPI 2 mg/kg i.p., dose titration experiments
[4] = 24 hours p.i., 8-OH-DPAT 250 μg/kg i.p., time-course study, n=3
[5] = 24 hours post SCI, pre-treated with p-MPPI 3 mg/kg i.p. 20 min before, 7% CO2 at 16′ & 17′ after 8-OH-DPAT
[6] = 24 hours post SCI, pre-treated with p-MPPI 3 mg/kg i.p. 20 min before, baseline, 3 & 4 min post 8-OH-DPAT
[7] = 24 hours post SCI, pre-treated with p-MPPI 3 mg/kg i.p. 20 min before, baseline, 9 & 10 min post 8-OH-DPAT
[8] = 24 h p.i., 7% CO2 at 24 min after 8-OH-DPAT 250 μg/kg i.p.
[9] = 24 h p.i., baseline (room air), 3 & 4 min post 8-OH-DPAT 250 μg/kg i.p.
[10] = 24 h p.i., baseline (room air), 21 & 22 min post 8-OH-DPAT 250 μg/kg i.p.
[11] = 7 d p.i., 7% CO2 at 31′ & 32′ post 8-OH-DPAT 250 μg/kg i.p.
[12] = 7 d p.i., baseline (room air), 3 & 4 min post 8-OH-DPAT 250 μg/kg i.p.
[13] = 7 d p.i., baseline (room air), 21 & 22 min post 8-OH-DPAT 250 μg/kg i.p.
[14] = 7% CO2 at 31′ & 32′ after 8-OH-DPAT 250 μg/kg i.p.
[15] = baseline (room air), 3 & 4 min post 8-OH-DPAT 250 μg/kg i.p.
[16] = baseline (room air), 11 & 12 min post 8-OH-DPAT 250 μg/kg i.p.
[17] = baseline (room air), 21 & 22 min post 8-OH-DPAT 250 μg/kg i.p.
[18] = 24 hours p.i., p-MPPI 3 mg/kg i.p. 20 minutes before 8-OH-DPAT
[19] = 24 hours post SCI, baseline (room air), 3 & 4 min post p-MPPI 3 mg/kg i.p., rats 360-390 g
[20] = 24 hours post SCI, baseline (room air), 19 & 20 min post p-MPPI 3 mg/kg i.p., rats 360-390 g

CCCN(CCC)C1CCc2cccc(O)c2C1 (stereo not drawn) [8-OH-DPAT, 8-hydroxy-2-(di-n-propylamino)tetralin]
effect on SCI-induced abnormal respiratory pattern (T8 SCI rats [1]; 24 hours after SCI, 8-OH-DPAT 250 μg/kg i.p.): promptly and successfully reversed the injury-triggered respiratory abnormalities
duration of initial rise of f above p.i. levels (T8 SCI rats [1]; 24 hours p.i., 8-OH-DPAT 250 μg/kg i.p.): about 20 minutes
time for which a single dose normalized ventilatory response to breathing 7% CO2 (T8 SCI rats [1]; [4]): more than 2 hours
time for which improvement of baseline Ve (room air) was significant (T8 SCI rats [1]; [4]): 1 h
Te (expiratory time) (T8 SCI rats [1]; [5]): 0.32 ± 0.05
Ti (inspiratory time) (T8 SCI rats [1]; [5]): 0.19 ± 0.02
Tv (tidal volume) (T8 SCI rats [1]; [5]): 1.15 ± 0.21↓ ml
Ve (minute ventilation) (T8 SCI rats [1]; [5]): 143.1 ± 28.1↓ ml/min
f (respiratory rate) (T8 SCI rats [1]; [5]): 126.8 ± 14.4 breaths/min
Te (expiratory time) (T8 SCI rats [1]; [6]): 0.32 ± 0.08↓
Ti (inspiratory time) (T8 SCI rats [1]; [6]): 0.32 ± 0.02
Tv (tidal volume) (T8 SCI rats [1]; [6]): 0.85 ± 0.14↓ ml
Ve (minute ventilation) (T8 SCI rats [1]; [6]): 82.5 ± 10.9↓ ml/min
f (respiratory rate) (T8 SCI rats [1]; [6]): 99.4 ± 9.1↑ breaths/min
Te (expiratory time) (T8 SCI rats [1]; [7]): 0.28 ± 0.02↓
Ti (inspiratory time) (T8 SCI rats [1]; [7]): 0.31 ± 0.02
Tv (tidal volume) (T8 SCI rats [1]; [7]): 0.82 ± 0.11↓ ml
Ve (minute ventilation) (T8 SCI rats [1]; [7]): 88.3 ± 13.3↓ ml/min
f (respiratory rate) (T8 SCI rats [1]; [7]): 107.5 ± 1.9↑ breaths/min
Ti (inspiratory time) (T8 SCI rats [1]; [8]): 0.17 ± 0.01
Tv (tidal volume) (T8 SCI rats [1]; [8]): 1.52 ± 0.08 mL
Ve (minute ventilation) (T8 SCI rats [1]; [8]): 267.5 ± 21.8 mL/min
f (respiratory rate) (T8 SCI rats [1]; [8]): 175.9 ± 9.7 breaths/min
Te (expiratory time) (T8 SCI rats [1]; [9]): 0.25 ± 0.02↓
Ti (inspiratory time) (T8 SCI rats [1]; [9]): 0.19 ± 0.01
Tv (tidal volume) (T8 SCI rats [1]; [9]): 0.96 ± 0.08 mL
Ve (minute ventilation) (T8 SCI rats [1]; [9]): 149.9 ± 15.6↑ ml/min
f (respiratory rate) (T8 SCI rats [1]; [9]): 155.5 ± 8.7↑ breaths/min
Te (expiratory time) (T8 SCI rats [1]; [10]): 0.47 ± 0.02
Ti (inspiratory time) (T8 SCI rats [1]; [10]): 0.18 ± 0.01
Tv (tidal volume) (T8 SCI rats [1]; [10]): 0.80 ± 0.06 mL
Ve (minute ventilation) (T8 SCI rats [1]; [10]): 81.3 ± 10.9 mL/min
f (respiratory rate) (T8 SCI rats [1]; [10]): 98.5±3.7 breaths/min and 98.5 ± 5.18 breaths/min
effect on SCI-induced abnormal respiratory pattern (T8 SCI rats [1]; 7 days p.i., 8-OH-DPAT 250 μg/kg i.p.): restored this abnormal pattern of breathing to normal
Te (expiratory time) (T8 SCI rats [1]; [11]): 0.17 ± 0.01
Ti (inspiratory time) (T8 SCI rats [1]; [11]): 0.16 ± 0.01
Tv (tidal volume) (T8 SCI rats [1]; [11]): 1.79 ± 0.35 mL
Ve (minute ventilation) (T8 SCI rats [1]; [11]): 327.2 ± 53.7↑ ml/min
f (respiratory rate) (T8 SCI rats [1]; [11]): 184.6 ± 6.6↑ breaths/min
Te (expiratory time) (T8 SCI rats [1]; [12]): 0.26 ± 0.03↓
Ti (inspiratory time) (T8 SCI rats [1]; [12]): 0.16 ± 0.01
Tv (tidal volume) (T8 SCI rats [1]; [12]): 1.11 ± 0.05 mL
Ve (minute ventilation) (T8 SCI rats [1]; [12]): 172.1 ± 17.1↑ ml/min
f (respiratory rate) (T8 SCI rats [1]; [12]): 155.2 ± 8.9↑ breaths/min
Te (expiratory time) (T8 SCI rats [1]; [13]): 0.32 ± 0.02↓
Ti (inspiratory time) (T8 SCI rats [1]; [13]): 0.15 ± 0.01
Tv (tidal volume) (T8 SCI rats [1]; [13]): 0.79 ± 0.04 mL
Ve (minute ventilation) (T8 SCI rats [1]; [13]): 103.0 ± 2.1↑ ml/min
f (respiratory rate) (T8 SCI rats [1]; [13]): 131.7 ± 7.7↑ breaths/min
Te (expiratory time) (normal conscious rats; [14]): 0.23 ± 0.03
Ti (inspiratory time) (normal conscious rats; [14]): 0.19 ± 0.01
Tv (tidal volume) (normal conscious rats; [14]): 1.50 ± 0.14 mL
Ve (minute ventilation) (normal conscious rats; [14]): 239.3 ± 48.9 mL/min
f (respiratory rate) (normal conscious rats; [14]): 155.6 ± 18.5 breaths/min
duration of increase in baseline Vt (normal conscious rats; 8-OH-DPAT 250 μg/kg i.p.): 4 min
duration of stimulating effect on f (normal conscious rats; 8-OH-DPAT 250 μg/kg i.p., to last minute of observation): ≥ 23 min
Te (expiratory time) (normal conscious rats; [15]): 0.25 ± 0.09↓
Ti (inspiratory time) (normal conscious rats; [15]): 0.19 ± 0.04
Tv (tidal volume) (normal conscious rats; [15]): 1.14 ± 0.08↑ ml
Ve (minute ventilation) (normal conscious rats; [15]): 198.6 ± 32.9↑ ml/min
f (respiratory rate) (normal conscious rats; [15]): 177.5 ± 36.2↑ breaths/min
Te (expiratory time) (normal conscious rats; [16]): 0.30 ± 0.07↓
Ti (inspiratory time) (normal conscious rats; [16]): 0.16 ± 0.02
Tv (tidal volume) (normal conscious rats; [16]): 0.92 ± 0.05 mL
Ve (minute ventilation) (normal conscious rats; [16]): 138.6 ± 27.6↑ ml/min
f (respiratory rate) (normal conscious rats; [16]): 149.8 ± 26.5↑ breaths/min
Te (expiratory time) (normal conscious rats; [17]): 0.41 ± 0.08↓
Ti (inspiratory time) (normal conscious rats; [17]): 0.18 ± 0.02
Tv (tidal volume) (normal conscious rats; [17]): 0.84 ± 0.02 mL
Ve (minute ventilation) (normal conscious rats; [17]): 112.9 ± 15.2↑ ml/min
f (respiratory rate) (normal conscious rats; [17]): 134.4 ± 21.2↑ breaths/min
ventilatory response to 7% CO2 challenge (normal conscious rats; starting at 24 minutes after 8-OH-DPAT): did not significantly alter
systematic half life (T1/2) [2]: ~50 min

COc1ccccc1N1CCN(CCN(C(=O)c2ccc(I)cc2)c2ccccn2)CC1 [p-MPPI, 4-(2′-methoxyphenyl)-1-[2′-[N-(2″-pyridinyl)-p-iodobenzamido]ethyl]piperazine]
effect of pre-treatment on 8-OH-DPAT effects on respiration (T8 SCI rats [1]; [18]): significantly suppressed
effect of pre-treatment on 8-OH-DPAT stimulation of ventilatory response to 7% CO2 (T8 SCI rats [1]; [18]): significantly blocked
Te (expiratory time) (T8 SCI rats [1]; [19]): 0.28 ± 0.02↓
Ti (inspiratory time) (T8 SCI rats [1]; [19]): 0.33 ± 0.01
Tv (tidal volume) (T8 SCI rats [1]; [19]): 0.75 ± 0.08↓ ml
Ve (minute ventilation) (T8 SCI rats [1]; [19]): 76.9 ± 4.6↓ ml/min
f (respiratory rate) (T8 SCI rats [1]; [19]): 103.2 ± 5.4↑ breaths/min
Te (expiratory time) (T8 SCI rats [1]; [20]): 0.54 ± 0.10
Ti (inspiratory time) (T8 SCI rats [1]; [20]): 0.28 ± 0.04
Tv (tidal volume) (T8 SCI rats [1]; [20]): 0.77 ± 0.08↓ ml
Ve (minute ventilation) (T8 SCI rats [1]; [20]): 57.8 ± 4.1↓ ml/min
f (respiratory rate) (T8 SCI rats [1]; [20]): 76.2 ± 7.7 breaths/min
effect of p-MPPI per se on respiratory function (normal conscious rats; p-MPPI 3 mg/kg i.p., n=3): No significant impacts
block of stimulating effects of 8-OH-DPAT on respiratory function (T8 SCI rats [3]): substantially block
